Reference: patent publication US8975265B2, “Substituted imidazo[1,2-a]pyrimidines and —pyridines” (Bayer Intellectual Property GmbH, priority 2010, dated 2015)

What was measured:
[1] = system: HT-144 (melanoma); assay: Tumor cell proliferation assay, HT-144; assay type: cell-based; conditions: Homo sapiens, 72h drug exposure, read-out: median IC50
Protocol: (§1) Biological Assay 4.0: Tumor Cell Proliferation Assays
(§2) Compounds were tested in a cell-based assay that measures the capacity of the compounds to inhibit tumour cell proliferation following a 72h drug exposure. Cell viability is determined using CellTiter-Glow® (CTG, Promega, cat# G7571/2/3). The CellTiter-Glo® Luminescent Cell Viability Assay is a homogeneous method to determine the number of viable cells in culture. Detection is based on using the luciferase reaction to measure the amount of ATP from viable cells. The amount of ATP in cells correlates with cell viability. Within minutes after a loss of membrane integrity, cells lose the ability to synthesize ATP, and endogenous ATPases destroy any remaining ATP; thus the levels of ATP fall precipitously.
(§3) Cells were plated at 3000-5000 cells/well (depending on the cell lines) in 90 μL growth medium on MTPs (Corning; #3603, black plate, clear flat bottom). For each cell line assayed, cells were plated onto a separate plate for determination of […] at t=0 hour and t=72 hour time points. Following overnight incubation at 37° C., chemiluminescence values for the t=0 samples were determined after adding 10 μl medium and 100 μl CTG solution according to manufacture protocol. […] Chemiluminescence values for the t=72 hour samples were determined. […]

[2] = target: His-tagged human recombinant kinase full-length Akt1 (Homo sapiens (Human), UniProt P31749); assay: Akt1 kinase assay (TR-FRET); assay type: biochemical; conditions: 10 μM ATP; read-out: Akt1, median IC50
Method in brief: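 Full-length His-tagged Akt1 (about 0.05 ng/μl final) preincubated 15 min at 22 °C with compound in 50 mM TRIS/HCl pH 7.5, 5 mM MgCl2, 1 mM DTT, 0.02% Triton X-100; biotinylated peptide substrate. Phosphopeptide detected by TR-FRET (Eu-chelate antibody to streptavidin-XL665) after 1 h at 22 °C.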

[3] = system: H1993 (NSCLC); assay: Tumor cell proliferation assay, H1993; assay type: cell-based; conditions: Homo sapiens, NCI-H1993, 72h drug exposure, read-out: median IC50
Protocol: as §1, §2, §3

[4] = system: UACC-257 (melanoma); assay: Tumor cell proliferation assay, UACC-257; assay type: cell-based; conditions: Homo sapiens, 72h drug exposure, read-out: median IC50
Protocol: as §1, §2, §3

[5] = system: U87 (brain); assay: Tumor cell proliferation assay, U87; assay type: cell-based; conditions: 72h drug exposure, read-out: median IC50
Protocol: as §1, §2, §3

[6] = system: UACC-62 (melanoma); assay: Tumor cell proliferation assay, UACC-62; assay type: cell-based; conditions: Homo sapiens, 72h drug exposure, read-out: median IC50
Protocol: as §1, §2, §3

[7] = system: A2058 (melanoma); assay: Tumor cell proliferation assay, A2058; assay type: cell-based; conditions: Homo sapiens, 72h drug exposure, read-out: median IC50
Protocol: as §1, §2, §3

[8] = system: Malme-3M (melanoma); assay: Tumor cell proliferation assay, Malme-3M; assay type: cell-based; conditions: Homo sapiens, 72h drug exposure, read-out: median IC50
Protocol: as §1, §2, §3

[9] = system: A375 (melanoma); assay: Tumor cell proliferation assay, A375; assay type: cell-based; conditions: Homo sapiens, A-375, 72h drug exposure, read-out: median IC50
Protocol: as §1, §2, §3

[10] = system: p-AKT1/2/3-S473 in KPL4 breast tumour cell line; assay: Cellular p-AKT1/2/3-S473 assay; assay type: cell-based; conditions: KPL4 breast tumour cell line, 2 hours treatment; read-out: pAKT-S743 median IC50
Method in brief: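 KPL4 cells (PIK3CA H1047R, HER2 0/E, hormone independent) were seeded at 60–80% confluency, cultured overnight, then exposed to compound for 2 h at 37 °C. pAKT-S473 and total AKT measured together by MSD Akt Duplex on 20 µg extract; pAKT expressed as % of total AKT, at least duplicate with independent repeats.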

[11] = system: SK-Mel-28 (melanoma); assay: Tumor cell proliferation assay, SK-Mel-28; assay type: cell-based; conditions: Homo sapiens, 72h drug exposure, read-out: median IC50
Protocol: as §1, §2, §3

[12] = system: HMCB (melanoma); assay: Tumor cell proliferation assay, HMCB; assay type: cell-based; conditions: Homo sapiens, 72h drug exposure, read-out: median IC50
Protocol: as §1, §2, §3

[13] = system: MeWo (melanoma); assay: Tumor cell proliferation assay, MeWo; assay type: cell-based; conditions: Homo sapiens, 72h drug exposure, read-out: median IC50
Protocol: as §1, §2, §3

[14] = system: KPL-4 breast cancer cell line; assay: Tumor cell proliferation assay (CellTiter-Glo, 72 h), KPL-4; assay type: cell-based; conditions: KPL4, 72h drug exposure
Method in brief: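 KPL-4 cells were treated with compound for 72 h at 37°C. Viability was measured as ATP by CellTiter-Glo luminescence, with a separate t=0 plate read after overnight attachment. A reference compound was run as standard.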

Chain of His-tagged human recombinant kinase full-length Akt1 (P31749 whole entry): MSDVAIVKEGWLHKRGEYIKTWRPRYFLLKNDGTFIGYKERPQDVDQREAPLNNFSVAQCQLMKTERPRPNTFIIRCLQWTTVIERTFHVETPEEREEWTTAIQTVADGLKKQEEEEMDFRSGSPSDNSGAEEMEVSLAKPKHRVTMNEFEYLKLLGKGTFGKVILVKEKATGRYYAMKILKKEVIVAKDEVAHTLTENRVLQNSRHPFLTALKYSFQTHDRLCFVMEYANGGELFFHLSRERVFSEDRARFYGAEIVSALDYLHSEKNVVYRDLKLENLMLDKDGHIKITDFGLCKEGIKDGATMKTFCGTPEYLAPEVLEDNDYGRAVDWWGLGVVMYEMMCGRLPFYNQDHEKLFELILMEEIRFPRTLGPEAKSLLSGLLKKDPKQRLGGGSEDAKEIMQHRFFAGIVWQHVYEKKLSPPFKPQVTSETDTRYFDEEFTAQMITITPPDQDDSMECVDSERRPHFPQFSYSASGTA

Structure (SMILES) | IC50 [1] [nM] | IC50 [2] [nM] | IC50 [3] [nM] | IC50 [4] [nM] | IC50 [5] [nM] | IC50 [6] [nM] | IC50 [7] [nM] | IC50 [8] [nM] | IC50 [9] [nM] | IC50 [10] [nM] | IC50 [11] [nM] | IC50 [12] [nM] | IC50 [13] [nM] | IC50 [14] [nM]
COc1ccn2c(-c3ccccc3)c(-c3ccc(C4(N)CCC4)cc3)nc2n1 [Example 2-0, 1-[4-(7-methoxy-3-phenyl-imidazo[1,2-a]pyrimidin-2-yl)-phenyl]-cyclobutylamine] | 2100 | 142 | 500 | 2000 | 10000 | 8900 | 2100 | 2400 | 8600 | 30 | 3700 | 8500 | 5200 | 800
NC1(c2ccc(-c3nc4nc(-c5ccccc5)ccn4c3-c3ccccc3)cc2)CCC1 [Example 1-3] | 2300 |  | 600 | 1100 | 4900 | 2200 | 2200 | 1900 | 2200 |  | 2000 | 2600 | 2000 | 1700
